Active and inactive are the calls of the source. The rule behind the calls is not given here.
Columns and labels:
U2OS [1] = assay: Induction of GSH depletion in human U2OS cells assessed as GSH content at 10 uM by GSH/GSSG-Glo assay relative to DMSO; format: functional
U2OS [2] = assay: Induction of ROS levels in human U2OS cells at 10 uM after 30 mins by CM-H2DCFDA/Hoechst-based fluorescence microscopic analysis relative to 10 uM CDNB; format: functional
HeLa [3] = assay: Induction of GSH depletion in human HeLa cells at 0.1 to 100 uM after 1 hr by GSH/GSSG-glo assay relative to control; format: functional, cell-based
HeLa [4] = assay: Induction of GSH depletion in human HeLa cells at 10 uM after 1 hr by Ellman's reagent based assay; format: functional
[5] = GSH reactivity in PBS buffer assessed as compound-GSH conjugate formation at 100 uM after 1 hr in presence of GSH by UHPLC/ESI-MS method; format: physicochemical
HeLa [6] = assay: Induction of ROS levels in human HeLa cells at 10 uM after 1 hr by CM-H2DCFDA/Hoechst-based fluorescence microscopic analysis relative to 10 uM CDNB; format: functional
HeLa [7] = assay: Induction of ROS induced cytotoxicity in human HeLa cells assessed as reduction in cell viability at 10 uM incubated for 24 hrs measured at 2 hrs interval by propidium iodide-staining based real time live cell imaging analysis; format: functional
HeLa [8] = assay: Induction of ROS induced cytotoxicity in human HeLa cells assessed as morphological changes at 10 uM incubated for 24 hrs measured after 2 hrs by propidium iodide-staining based real time live cell imaging analysis; format: functional
HeLa [9] = assay: Induction of ROS induced cytotoxicity in human HeLa cells at 5 uM incubated for 24 hrs in presence of BSO measured at 2 hrs interval by propidium iodide staining based real time live cell imaging analysis; format: functional
HeLa [10] = assay: Induction of GSH depletion in human HeLa cells after 1 hr by GSH/GSSG-glo assay relative to control; format: functional, cell-based
HeLa [11] = assay: Induction of ROS induced cytotoxicity in human HeLa cells assessed as reduction in cell viability at 5 uM incubated for 24 hrs measured at 2 hrs interval by propidium iodide-staining based real time live cell imaging analysis; format: functional
[12] = GSH reactivity in PBS buffer assessed as retention time for compound-GSH conjugate formation at 100 uM after 1 hr in presence of GSH by UHPLC/ESI-MS method; format: physicochemical
HeLa [13] = assay: Induction of ROS induced cytotoxicity in human HeLa cells at 10 uM administered after 1 hr pretreatment with NAC incubated for 24 hrs measured at 2 hrs interval by propidium iodide staining based real time live cell imaging analysis; format: functional
HeLa [14] = assay: Induction of ROS induced cytotoxicity in human HeLa cells assessed as reduction in cell viability at 2.5 to 20 uM incubated for 24 hrs measured at 2 hrs interval by propidium iodide-staining based live cell imaging analysis; format: functional
HeLa [15] = assay: Induction of GSH depletion in human HeLa cells at 20 uM after 1 hr by Ellman's reagent based assay; format: functional
HeLa [16] = assay: Induction of GSH depletion in human HeLa cells at 5 uM after 1 hr by Ellman's reagent based assay; format: functional
HeLa [17] = assay: Induction of ROS induced cytotoxicity in human HeLa cells at 2.5 uM incubated for 24 hrs in presence of BSO measured at 2 hrs interval by propidium iodide staining based real time live cell imaging analysis; format: functional
HeLa [18] = assay: Induction of ROS induced cytotoxicity in human HeLa cells at 5 uM administered after 1 hr pretreatment with NAC incubated for 24 hrs measured at 2 hrs interval by propidium iodide staining based real time live cell imaging analysis; format: functional

In the case of `O=C(NCc1ccc(Cl)cc1)c1c(Cl)nc(Cl)c(Cl)c1Cl`, the Activity (U2OS [1]) is reported as 30.39%, the Activity (U2OS [2]) is reported as 87% and the Activity (HeLa [3]) is reported as “Active”.
With `O=C(Cn1ncc(Br)c(Br)c1=O)C12CC3CC(CC(C3)C1)C2` the Activity (U2OS [1]) was 13.2%, the Activity (U2OS [2]) was 88% and the Activity (HeLa [3]) was “Active”.
`CCCS(=O)(=O)c1ncc(Cl)c(C(=O)Nc2nc(C)c(C(=O)OCC(C)C)s2)n1` showed an Activity (U2OS [1]) of 23.2% and an Activity (U2OS [2]) of 130%.
For `O=c1c(Cl)c(Cl)cnn1Cc1nc2ccccc2n1C(F)F`, the Activity (U2OS [1]) was 31.86% and the Activity (U2OS [2]) was 111%.
For `O=C(Cn1ncc(Cl)c(Cl)c1=O)N(Cc1ccco1)CC(F)(F)F`, the Activity (U2OS [1]) was 35.84% and the Activity (U2OS [2]) was 75%.
With `CCOC(=O)C1CCN(C(=O)Cn2ncc(Cl)c(Cl)c2=O)CC1` the Activity (U2OS [1]) was 35.47% and the Activity (U2OS [2]) was 95%.
With `CCCS(=O)(=O)c1ncc(Cl)c(C(=O)Nc2nc3ccc(F)cc3s2)n1` the Activity (U2OS [1]) was 11.22% and the Activity (U2OS [2]) was 97%.
For `O=[N+]([O-])c1ccc(Cl)c([N+](=O)[O-])c1`, the Activity (HeLa [4]) was “Active”.
For `COc1ccc(N(C)C(=O)c2nc(Cl)c(Cl)c(Cl)c2Cl)cc1OC`, the Activity (HeLa [3]) was “Active”.
Work on `COc1ccc2nc(NC(=O)c3nc(S(C)(=O)=O)ncc3Cl)sc2c1` yielded an Activity (U2OS [1]) of 30.72% and an Activity (U2OS [2]) of 107%.
In the case of `NC(=O)C1CCN(C(=O)c2nc(Cl)c(Cl)c(Cl)c2Cl)CC1`, the Activity (U2OS [1]) is reported as 24.15%, the Activity (U2OS [2]) is reported as 55% and the Activity [5] is reported as “Active”. For the same compound, the Activity (HeLa [3]) was “Active”, the Activity (HeLa [4]) was “Active” and the Activity (HeLa [6]) was 98.33%. The Activity (HeLa [7]) was “Active”.
Compound `O=c1c(Cl)c(Cl)cnn1-c1ccc(S(=O)(=O)NCc2cc(-c3ccccc3)no2)cc1` has an Activity (U2OS [1]) of 24.31% and an Activity (U2OS [2]) of 129%.
In the case of `COCCOc1ccc(CNC(=O)c2nc(Cl)c(Cl)c(Cl)c2Cl)cc1`, the Activity (HeLa [3]) is reported as “Active”.
`O=C(CN1CCCC1c1ccc2c(c1)OCCO2)Cn1ncc(Cl)c(Cl)c1=O` (configuration not stated) showed an Activity (U2OS [1]) of 19.2% and an Activity (U2OS [2]) of 163%.
For `O=C(Cn1ncc(Cl)c(Cl)c1=O)N(C1=CCCCC1)C1CC1`, the Activity (U2OS [1]) was 38.9% and the Activity (U2OS [2]) was 70%.
For `CC(=O)c1ccc(N2CCN(C(=O)Cn3ncc(Cl)c(Cl)c3=O)CC2)c(F)c1`, the Activity (U2OS [1]) was 30.95%, the Activity (U2OS [2]) was 113% and the Activity (HeLa [3]) was “Active”.
With `CCCNC(=O)c1c(Cl)nc(Cl)c(Cl)c1Cl` the Activity (HeLa [3]) was “Active”.
In the case of `O=C(c1c(Cl)nc(Cl)c(Cl)c1Cl)N1CCOCC1`, the Activity (HeLa [3]) is reported as “Active”.
In the case of `CCN(CC)C(=O)c1cccc(NS(=O)(=O)c2ccc(-n3ncc(Cl)c(Cl)c3=O)cc2)c1`, the Activity (U2OS [1]) is reported as 30.8%, the Activity (U2OS [2]) is reported as 98% and the Activity (HeLa [3]) is reported as “Active”.
For `COc1ccc(OC)c(NC(=O)c2c(Cl)nc(Cl)c(Cl)c2Cl)c1`, the Activity (U2OS [1]) was 39.27%, the Activity (U2OS [2]) was 69% and the Activity [5] was “Active”. For the same compound, the Activity (HeLa [8]) was “Active”, the Activity (HeLa [9]) was “Active” and the Activity (HeLa [3]) was “inactive”. For the same compound, the Activity (HeLa [4]) was “inactive”, the Activity (HeLa [10]) was “Dose-dependent effect” and the Activity (HeLa [11]) was “Active”. The Retention_time [12] was 3.48 min, the Activity (HeLa [6]) was 73.78% and the Activity (HeLa [13]) was “inactive”.
For `O=c1c(Br)c(Br)cnn1Cc1ccccc1`, the Activity (U2OS [1]) was 37.49%, the Activity (U2OS [2]) was 77% and the Activity (HeLa [3]) was “Active”.
For `O=C(Nc1ccccc1Br)c1c(Cl)nc(Cl)c(Cl)c1Cl`, the Activity (U2OS [1]) was 36.07%, the Activity (U2OS [2]) was 91% and the Activity (HeLa [3]) was “Active”.
With `CC(=O)c1c(C)[nH]c(C(=O)Cn2ncc(Cl)c(Cl)c2=O)c1C` the Activity (U2OS [1]) was 32.83%, the Activity (U2OS [2]) was 100% and the Activity (HeLa [3]) was “Active”.
With `COc1cccc(CNC(=O)COC(=O)c2nc(Cl)c(Cl)c(Cl)c2Cl)c1` the Activity [5] was “Active”, the Activity (HeLa [3]) was “inactive” and the Activity (HeLa [4]) was “inactive”. The Activity (HeLa [6]) was 12.14% and the Activity (HeLa [14]) was “inactive”.
For `O=C(Cn1ncc(Cl)c(Cl)c1=O)N1CCCC1c1ccc2c(c1)OCCO2` (configuration not stated), the Activity [5] was “Active”, the Activity (HeLa [8]) was “Active” and the Activity (HeLa [3]) was “Active”. The Activity (HeLa [4]) was “Active”, the Activity (HeLa [6]) was 78.23% and the Activity (HeLa [7]) was “Active”.
In the case of `CCS(=O)(=O)c1ncc(Cl)c(C(=O)Nc2ccc(-c3nc4ccc(C)cc4s3)cc2)n1`, the Activity (U2OS [1]) is reported as 37.49% and the Activity (U2OS [2]) is reported as 127%.
In the case of `COc1ccc2c(c1)CCCN2S(=O)(=O)c1ccc(-n2ncc(Cl)c(Cl)c2=O)cc1`, the Activity (U2OS [1]) is reported as 29.49% and the Activity (U2OS [2]) is reported as 52%.
In the case of `N#Cc1c(Cl)nc(N2CCOCC2)c(Cl)c1Cl`, the Activity (U2OS [1]) is reported as 22.32% and the Activity (U2OS [2]) is reported as 82%.
With `Clc1ncnc2c1oc1ccccc12` the Activity (U2OS [1]) was 25.49% and the Activity (U2OS [2]) was 116%.
Work on `Cc1nnc(NC(=O)c2nc(S(=O)(=O)Cc3ccccc3)ncc2Cl)s1` yielded an Activity (U2OS [1]) of 34.32% and an Activity (U2OS [2]) of 92%.
In the case of `O=c1c(Br)c(Br)cnn1CC(O)COc1cccc(Br)c1` (configuration not stated), the Activity (HeLa [3]) is reported as “Active”.
`O=C1CC(c2cccc3ccccc23)CC1=O` showed an Activity (U2OS [1]) of 24.43% and an Activity (U2OS [2]) of 110%.
In the case of `CC(C)N(C(=O)Cn1ncc(Br)c(Br)c1=O)c1ccccc1`, the Activity (U2OS [1]) is reported as 20.43%, the Activity (U2OS [2]) is reported as 67% and the Activity (HeLa [3]) is reported as “Active”.
`CC(NC(=O)Cn1ncc(Cl)c(Cl)c1=O)c1ccc(F)cc1` (configuration not stated) gave an Activity (U2OS [1]) of 22.59% and an Activity (U2OS [2]) of 79%.
In the case of `O=C(Cn1ncc(Cl)c(Cl)c1=O)N1CCc2cc(S(=O)(=O)N3CCCCC3)ccc21`, the Activity (U2OS [1]) is reported as 35.26% and the Activity (U2OS [2]) is reported as 104%.
In the case of `Cc1cccc(NC(=O)c2nc(Cl)c(Cl)c(Cl)c2Cl)c1C`, the Activity (HeLa [3]) is reported as “Active”.
`CCS(=O)(=O)c1ncc(Cl)c(C(=O)Nc2c(C(=O)Nc3ccccc3)oc3ccccc23)n1` showed an Activity (U2OS [1]) of 39.62% and an Activity (U2OS [2]) of 83%.
In the case of `O=c1cc(Cn2ncc(Cl)c(Cl)c2=O)[nH]c(=O)[nH]1`, the Activity [5] is reported as “Active”, the Activity (HeLa [3]) is reported as “Active” and the Activity (HeLa [4]) is reported as “inactive”. The Activity (HeLa [6]) was 9.73%, the Activity (HeLa [14]) was “inactive” and the Activity (HeLa [15]) was 21.3%.
In the case of `CN(C(=O)Cn1ncc(Br)c(Br)c1=O)C1CCCc2ccccc21` (configuration not stated), the Activity (U2OS [1]) is reported as 9.56%, the Activity (U2OS [2]) is reported as 60% and the Activity [5] is reported as “Active”. The Activity (HeLa [8]) was “Active”, the Activity (HeLa [3]) was “Active” and the Activity (HeLa [16]) was 23.1%. The Activity (HeLa [4]) was 38%, the Activity (HeLa [17]) was “Active” and the Activity (HeLa [11]) was “Active”. For the same compound, the Retention_time [12] was 3.41 min, the Activity (HeLa [6]) was 63.96% and the Activity (HeLa [18]) was “inactive”.
Compound `Cc1cccc(CS(=O)(=O)c2ncc(Cl)c(C(=O)Nc3nc4ccc(C)cc4s3)n2)c1` has an Activity (U2OS [1]) of 37.21% and an Activity (U2OS [2]) of 106%.
